Assay results published in patent US10640497B2, “Microbiocidal oxadiazole derivatives” (SYNGENTA PARTICIPATIONS AG, priority 2015, dated 2020).

What was measured:
[1] = test system: Glomerella lagenarium (Colletotrichum lagenarium); experiment: Fungicidal activity against Glomerella lagenarium (Colletotrichum lagenarium), liquid culture, cucumber, preventative (anthracnose); assay type: cell-based; details: Colletotrichum orbiculare, liquid culture (PDB), growth inhibition measured photometrically 3-4 days after application, compared to untreated control
Protocol: Mycelia fragments or conidia suspensions of a fungus, prepared either freshly from liquid cultures of the fungus or from cryogenic storage, are directly mixed into nutrient broth. DMSO solutions of the test compound (max. 10 mg/ml) is diluted with 0.025% Tween20 by a factor of 50 and 10 μl of this solution is pipetted into a microtiter plate (96-well format). The nutrient broth containing the fungal spores/mycelia fragments is then added to give an end concentration of the tested compound. The test plates are incubated in the dark at 24° C. and 96% relative humidity. The inhibition of fungal growth is determined photometrically after 2 to 7 days, depending on the pathosystem, and percent antifungal activity relative to the untreated check is calculated. Conidia of the fungus from cryogenic storage are directly mixed into nutrient broth (PDB potato dextrose broth). After placing a (DMSO) solution of test compound into a microtiter plate (96-well format), the nutrient broth containing the fungal spores is added. The test plates are incubated at 24° C. and the inhibition of growth is measured photometrically 3-4 days after application.

Phakopsora pachyrhizi = experiment: Fungicidal activity against Phakopsora pachyrhizi, soybean, leaf disc preventative (Asian soybean rust); assay type: in vivo; details: foliar, 288 h, 12-14 days after application, compared to untreated control
Protocol: Leaf disks or leaf segments of various plant species are cut from plants grown in a greenhouse. The cut leaf disks or segments are placed in multiwell plates (24-well format) onto water agar. The leaf disks are sprayed with a test solution before (preventative) or after (curative) inoculation. Compounds to be tested are prepared as DMSO solutions (max. 10 mg/ml) which are diluted to the appropriate concentration with 0.025% Tween20 just before spraying. The inoculated leaf disks or segments are incubated under defined conditions (temperature, relative humidity, light, etc.) according to the respective test system. A single evaluation of disease level is carried out 3 to 14 days after inoculation, depending on the pathosystem. Percent disease control relative to the untreated check leaf disks or segments is then calculated. Soybean leaf disks are placed on water agar in multiwell plates (24-well format) and sprayed with the formulated test compound diluted in water. One day after application leaf discs are inoculated by spraying a spore suspension on the lower leaf surface. After an incubation period in a climate cabinet of 24-36 hours in darkness at 20° C. and 75% rh leaf disc are kept at 20° C. with 12 h light/day and 75% rh. The activity of a compound is assessed as percent disease control compared to untreated when an appropriate level of disease damage appears in untreated check leaf disks (12-14 days after application).

[2] = test system: Puccinia recondita f. sp. tritici; experiment: Fungicidal activity against Puccinia recondita f. sp. tritici, wheat, leaf disc curative (brown rust); assay type: in vivo; details: foliar, 144 h, wheat leaf segments, curative (applied 1 day after inoculation), 6-8 days after application, compared to untreated control
Protocol: (§1) Leaf disks or leaf segments of various plant species are cut from plants grown in a greenhouse. The cut leaf disks or segments are placed in multiwell plates (24-well format) onto water agar. The leaf disks are sprayed with a test solution before (preventative) or after (curative) inoculation. Compounds to be tested are prepared as DMSO solutions (max. 10 mg/ml) which are diluted to the appropriate concentration with 0.025% Tween20 just before spraying. The inoculated leaf disks or segments are incubated under defined conditions (temperature, relative humidity, light, etc.) according to the respective test system. A single evaluation of disease level is carried out 3 to 14 days after inoculation, depending on the pathosystem. Percent disease control relative to the untreated check leaf disks or segments is then calculated. Wheat leaf segments cv. Kanzler are placed on agar in multiwell plates (24-well format). The leaf segments are inoculated with a spore suspension of the fungus. Plates are stored in darkness at 19° C. and 75% rh. The formulated test compound diluted in water is applied 1 day after inoculation. The leaf segments are incubated at 19° C. and 75% rh under a light regime of 12 h light/12 h darkness in a climate cabinet and the activity of a compound is assessed as percent disease control compared to untreated when an appropriate level of disease damage appears in untreated check leaf segments (6-8 days after application).

[3] = test system: Puccinia recondita f. sp. tritici; experiment: Fungicidal activity against Puccinia recondita f. sp. tritici, wheat, leaf disc preventative (brown rust); assay type: in vivo; details: foliar, wheat leaf segments, preventative (inoculated 1 day after application), 7-9 days after application, compared to untreated control
Protocol: as §1, with “plates (24-well format) and sprayed with the formulated test compound diluted in water. The leaf” for “plates (24-well format). The leaf”, “of the fungus 1 day” for “of the fungus. Plates are stored in darkness at 19° C. and 75% rh. The formulated test compound diluted in water is applied 1 day”, “day after application. The inoculated” for “day after inoculation. The leaf”, “application. The inoculated leaf segments” for “inoculation. The leaf segments”, “leaf segments (7-9 days after” for “leaf segments (6-8 days after”

CC1CCCN(Cc2ccc(-c3noc(C(F)(F)F)n3)cc2)C1=O (stereo not drawn) [Compound A-10, 3-methyl-1-[[4-[5-(trifluoromethyl)-1,2,4-oxadiazol-3-yl]phenyl]methyl]piperidin-2-one]
≥ 80%: inhibition of growth at 20 ppm [1] | pest or weed control at 200 ppm (Phakopsora pachyrhizi) | pest or weed control at 200 ppm [2] | pest or weed control at 200 ppm [3]

CC1(C)CC(=O)N(Cc2ccc(-c3noc(C(F)(F)F)n3)cc2)C(=O)C1 [Compound A-11, 4,4-dimethyl-1-[[4-[5-(trifluoromethyl)-1,2,4-oxadiazol-3-yl]phenyl]methyl]piperidine-2,6-dione]
≥ 80%: inhibition of growth at 20 ppm [1] | pest or weed control at 200 ppm (Phakopsora pachyrhizi) | pest or weed control at 200 ppm [2] | pest or weed control at 200 ppm [3]

O=C1CCCCN1Cc1ccc(-c2noc(C(F)(F)F)n2)cn1 [Compound A-12, 1-[[5-[5-(trifluoromethyl)-1,2,4-oxadiazol-3-yl]-2-pyridyl]methyl]piperidin-2-one]
≥ 80%: inhibition of growth at 20 ppm [1] | pest or weed control at 200 ppm (Phakopsora pachyrhizi) | pest or weed control at 200 ppm [2] | pest or weed control at 200 ppm [3]

CC1CCC(=O)N1Cc1ccc(-c2noc(C(F)(F)F)n2)cc1 (stereo not drawn) [Compound A-13, 5-methyl-1-[[4-[5-(trifluoromethyl)-1,2,4-oxadiazol-3-yl]phenyl]methyl]pyrrolidin-2-one]
≥ 80%: inhibition of growth at 20 ppm [1] | pest or weed control at 200 ppm (Phakopsora pachyrhizi) | pest or weed control at 200 ppm [2] | pest or weed control at 200 ppm [3]

CC1CCCC(=O)N1Cc1ccc(-c2noc(C(F)(F)F)n2)cc1 (stereo not drawn) [Compound A-14, 6-methyl-1-[[4-[5-(trifluoromethyl)-1,2,4-oxadiazol-3-yl]phenyl]methyl]piperidin-2-one]
≥ 80%: inhibition of growth at 20 ppm [1] | pest or weed control at 200 ppm (Phakopsora pachyrhizi) | pest or weed control at 200 ppm [2] | pest or weed control at 200 ppm [3]

O=C1C2CCC(CC2)N1Cc1ccc(-c2noc(C(F)(F)F)n2)cc1 [Compound A-15, 3-[[4-[5-(trifluoromethyl)-1,2,4-oxadiazol-3-yl]phenyl]methyl]-3-azabicyclo[2.2.2]octan-2-one]
≥ 80%: inhibition of growth at 20 ppm [1] | pest or weed control at 200 ppm (Phakopsora pachyrhizi) | pest or weed control at 200 ppm [2] | pest or weed control at 200 ppm [3]

CC1(C)CCCN(Cc2ccc(-c3noc(C(F)(F)F)n3)cc2)C1=O [Compound A-16, 3,3-dimethyl-1-[[4-[5-(trifluoromethyl)-1,2,4-oxadiazol-3-yl]phenyl]methyl]piperidin-2-one]
≥ 80%: inhibition of growth at 20 ppm [1] | pest or weed control at 200 ppm (Phakopsora pachyrhizi) | pest or weed control at 200 ppm [2] | pest or weed control at 200 ppm [3]

CC1CCN(Cc2ccc(-c3noc(C(F)(F)F)n3)cc2)C(=O)C1 (stereo not drawn) [Compound A-17, 4-methyl-1-[[4-[5-(trifluoromethyl)-1,2,4-oxadiazol-3-yl]phenyl]methyl]piperidin-2-one]
≥ 80%: inhibition of growth at 20 ppm [1] | pest or weed control at 200 ppm (Phakopsora pachyrhizi) | pest or weed control at 200 ppm [2] | pest or weed control at 200 ppm [3]

CC1CCC(=O)N(Cc2ccc(-c3noc(C(F)(F)F)n3)cc2)C1 (stereo not drawn) [Compound A-18, 5-methyl-1-[[4-[5-(trifluoromethyl)-1,2,4-oxadiazol-3-yl]phenyl]methyl]piperidin-2-one]
≥ 80%: inhibition of growth at 20 ppm [1] | pest or weed control at 200 ppm (Phakopsora pachyrhizi) | pest or weed control at 200 ppm [2] | pest or weed control at 200 ppm [3]

COC1CCCN(Cc2ccc(-c3noc(C(F)(F)F)n3)cc2)C1=O (stereo not drawn) [Compound A-19, 3-methoxy-1-[[4-[5-(trifluoromethyl)-1,2,4-oxadiazol-3-yl]phenyl]methyl]piperidin-2-one]
≥ 80%: inhibition of growth at 20 ppm [1] | pest or weed control at 200 ppm (Phakopsora pachyrhizi) | pest or weed control at 200 ppm [2] | pest or weed control at 200 ppm [3]

O=C1CC(C(F)(F)F)N1Cc1ccc(-c2noc(C(F)(F)F)n2)cc1 (stereo not drawn) [Compound A-20, 4-(trifluoromethyl)-1-[[4-[5-(trifluoromethyl)-1,2,4-oxadiazol-3-yl]phenyl]methyl]azetidin-2-one]
≥ 80%: inhibition of growth at 20 ppm [1] | pest or weed control at 200 ppm (Phakopsora pachyrhizi) | pest or weed control at 200 ppm [2] | pest or weed control at 200 ppm [3]

O=C1CCC(C(F)F)N1Cc1ccc(-c2noc(C(F)(F)F)n2)cc1 (stereo not drawn) [Compound A-21, 5-(difluoromethyl)-1-[[4-[5-(trifluoromethyl)-1,2,4-oxadiazol-3-yl]phenyl]methyl]pyrrolidin-2-one]
≥ 80%: inhibition of growth at 20 ppm [1] | pest or weed control at 200 ppm (Phakopsora pachyrhizi) | pest or weed control at 200 ppm [2] | pest or weed control at 200 ppm [3]

O=C1CCN1Cc1ccc(-c2noc(C(F)(F)F)n2)cc1 [Compound A-23, 1-[[4-[5-(trifluoromethyl)-1,2,4-oxadiazol-3-yl]phenyl]methyl]azetidin-2-one]
≥ 80%: inhibition of growth at 20 ppm [1] | pest or weed control at 200 ppm (Phakopsora pachyrhizi) | pest or weed control at 200 ppm [2] | pest or weed control at 200 ppm [3]

O=C1C2CCC(C2)N1Cc1ccc(-c2noc(C(F)(F)F)n2)cc1 (stereo not drawn) [Compound A-24, 3-[[4-[5-(trifluoromethyl)-1,2,4-oxadiazol-3-yl]phenyl]methyl]-3-azabicyclo[2.2.1]heptan-2-one]
≥ 80%: inhibition of growth at 20 ppm [1] | pest or weed control at 200 ppm (Phakopsora pachyrhizi) | pest or weed control at 200 ppm [2] | pest or weed control at 200 ppm [3]

O=C1CCCC2(CC2)N1Cc1ccc(-c2noc(C(F)(F)F)n2)cc1 [Compound A-25, 4-[[4-[5-(trifluoromethyl)-1,2,4-oxadiazol-3-yl]phenyl]methyl]-4-azaspiro[2.5]octan-5-one]
≥ 80%: inhibition of growth at 20 ppm [1] | pest or weed control at 200 ppm (Phakopsora pachyrhizi) | pest or weed control at 200 ppm [2] | pest or weed control at 200 ppm [3]

O=C1CCC2(CC2)N1Cc1ccc(-c2noc(C(F)(F)F)n2)cc1 [Compound A-27, 4-[[4-[5-(trifluoromethyl)-1,2,4-oxadiazol-3-yl]phenyl]methyl]-4-aza-spiro[2.4]heptan-5-one]
≥ 80%: inhibition of growth at 20 ppm [1] | pest or weed control at 200 ppm (Phakopsora pachyrhizi) | pest or weed control at 200 ppm [2] | pest or weed control at 200 ppm [3]

O=C1CCCCN1Cc1ccc(-c2noc(C(F)(F)F)n2)cc1F [Compound A-29, 1-[[2-fluoro-4-[5-(trifluoromethyl)-1,2,4-oxadiazol-3-yl]phenyl]methyl]piperidin-2-one]
≥ 80%: inhibition of growth at 20 ppm [1] | pest or weed control at 200 ppm (Phakopsora pachyrhizi) | pest or weed control at 200 ppm [2] | pest or weed control at 200 ppm [3]

CCOC(=O)N1CCN(Cc2ccc(-c3noc(C(F)(F)F)n3)cc2)C(=O)C1 [Compound A-32, ethyl 3-oxo-4-[[4-[5-(trifluoromethyl)-1,2,4-oxadiazol-3-yl]phenyl]methyl]piperazine-1-carboxylate]
≥ 80%: inhibition of growth at 20 ppm [1] | pest or weed control at 200 ppm (Phakopsora pachyrhizi) | pest or weed control at 200 ppm [2] | pest or weed control at 200 ppm [3]
